The IC50 is the concentration that gives 50% inhibition.

Positions count from the first letter of the chain named. Like-named read-outs stand apart in the source and are kept apart here.

The conditions of data set [1]: cited from earlier work.
For data set [2] the following is noted: cited from earlier work. This is another data set of the same source.
For data set [3] the following is noted: cited from earlier work. The source holds these as a separate data set.
The conditions of data set [4]: cited from earlier work. This is another data set of the same source.
Another data set has as its system mice with stroke. The settings on record: cited from earlier work.
Data set [5] has as its target T1, hGAT3 (Homo sapiens, UniProt P48066).
T1 sequence (P48066 1-632): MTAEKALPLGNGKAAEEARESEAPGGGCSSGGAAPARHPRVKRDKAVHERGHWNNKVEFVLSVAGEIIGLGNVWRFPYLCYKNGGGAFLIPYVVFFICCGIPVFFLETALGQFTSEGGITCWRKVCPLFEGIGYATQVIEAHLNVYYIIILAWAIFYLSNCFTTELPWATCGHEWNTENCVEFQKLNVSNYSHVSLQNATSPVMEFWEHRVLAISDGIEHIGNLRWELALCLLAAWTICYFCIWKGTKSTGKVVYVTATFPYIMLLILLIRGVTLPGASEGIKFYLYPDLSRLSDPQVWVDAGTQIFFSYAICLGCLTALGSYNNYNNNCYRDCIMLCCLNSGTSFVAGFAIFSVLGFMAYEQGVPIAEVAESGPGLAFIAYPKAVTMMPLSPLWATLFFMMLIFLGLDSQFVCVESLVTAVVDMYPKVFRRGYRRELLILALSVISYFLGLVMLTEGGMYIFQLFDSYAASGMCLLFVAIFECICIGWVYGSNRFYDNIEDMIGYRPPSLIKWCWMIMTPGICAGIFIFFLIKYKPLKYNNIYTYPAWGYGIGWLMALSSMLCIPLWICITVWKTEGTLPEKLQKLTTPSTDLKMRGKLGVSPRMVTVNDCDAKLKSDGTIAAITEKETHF
Nature of the data set: [3H]GABA competition uptake assay, wild-type hGAT3 in HEK293T cells. Format: cell-based.

A further data set concerns the target T2, hGAT3-C316S (Homo sapiens, UniProt P48066, C316S).
T2 sequence (P48066 1-632 C316S): T1 sequence (P48066 1-632) with C316S
As to the kind of experiment: [3H]GABA competition uptake assay, hGAT3-C316S mutant in HEK293T cells. Format: cell-based.

The target of data set [6] is T1, hGAT3. As to the kind of experiment: [3H]GABA uptake kinetic. Format: cell-based. The following applies: with and without preincubation.
Data set [7] concerns the target T1, hGAT3. Nature of the data set: FLIPR membrane potential. The format is cell-based.
The target of a further data set is T3, hGAT3-eGFP (Homo sapiens, UniProt P48066).
T3 sequence (P48066 1-632): T1 sequence (P48066 1-632)
As to the kind of experiment: Confocal microscopy of membrane-localized hGAT3-eGFP fluorescence. The following applies: 100 µM SR-THAP; 1 h incubation; versus buffer. The format is cell-based.

As for `COc1ccc(C(OCCN2CCC[C@H](C(=O)O)C2)(c2ccc(OC)cc2)c2ccc(OC)cc2)cc1` [(S)-SNAP-5114, (S)−1-{2-[Tris(4-methoxyphenyl)methoxy]ethyl}piperidine-3-carboxylic acid], the chemical stability result in [1] is “poor”. For the same molecule, the solubility entry in [2] is reported as “limited”. Also, the “brain uptake after systemic administration” value in [3] is on record as “limited”. In data set [4], the cellular toxicity result is recorded as “cellular toxicity”. Besides, the in vivo toxicity result in the data set on mice with stroke is “severe in vivo toxicity”.

Take `NCCCC(=O)O` [GABA, γ-Aminobutyric acid, reference compound]: the IC50 at hGAT3 [5] is 6.9 µM; on hGAT3-C316S, 4.2 µM.

For the molecule `COc1ccc(C(/C=C/CN2CCC[C@@H]2[C@H](O)C(=O)O)(c2ccc(OC)cc2)c2ccc(OC)cc2)cc1` [SR-THAP, (2S, 2′R)−2-hydroxy-2-(1-((E)−4,4,4-tris(4-methoxyphenyl)but-2-en-1-yl)pyrrolidin-2′-yl)acetic acid], the “time to equilibrium between extracellular and cytosolic compound” value at hGAT3 [5] (from preincubation time course) is given as at most 15 min. Further, the IC50 was 4.9 µM at hGAT3 [5] (read-out: IC50, inhibition of [3H]GABA uptake by hGAT3, 120 min preincubation (with preincubation), HEK293T cells) and 10.6 µM at hGAT3-C316S (read-out: IC50, inhibition of [3H]GABA uptake by hGAT3-C316S, 120 min preincubation). The “increase in potency after 120-min preincubation” value on hGAT3 [5] (versus without preincubation) is reported as “five-fold”. The “mode of inhibition ([3H]GABA uptake kinetics)” value at hGAT3 [6] was “non-competitive”. The “substrate-like response / transport in FMP assay” value at hGAT3 [7] (50 µM GABA, 20 µM SR-THAP, compared with buffer) was “no substrate-like response”. Further, the “mode of inhibition (FMP Michaelis-Menten kinetics)” value at hGAT3 [7] (absence of preincubation) was “non-competitive”. For the same molecule, the “surface expression of hGAT3 (membrane-localized eGFP fluorescence)” value on hGAT3-eGFP is reported as “No difference”.

The values are drawn from PMC12916826 (Nature Communications, 2026).
